Assay results taken from publication PMC7939381, “MMP activation–associated aminopeptidase N reveals a bivalent 14-3-3 binding motif” (The Journal of Biological Chemistry, 2021).
Where a SMILES comes first, the peptide text is derived from it. [ ]: non-standard residue; d: D form. pT = C[C@@H](OP(=O)(O)O)[C@H](N)C(=O)O; pS = N[C@@H](COP(=O)(O)O)C(=O)O

The compounds below were run against T1, 14-3-3η (Homo sapiens, UniProt Q04917) (assay: direct binding FP assay, 14-3-3η). Details: FITC-labeled peptide; FP buffer pH 7.4; 60 min room temperature; mean ± S.D., n = 3; values for 14-16 are estimated (Fig. S4); read-out: KD toward 14-3-3η (FP assay).
T1 construct: N-terminally His6-tagged 14-3-3 full-length proteins were expressed with heterologous bacterial expression; made in house
T1 sequence (Q04917 1-246): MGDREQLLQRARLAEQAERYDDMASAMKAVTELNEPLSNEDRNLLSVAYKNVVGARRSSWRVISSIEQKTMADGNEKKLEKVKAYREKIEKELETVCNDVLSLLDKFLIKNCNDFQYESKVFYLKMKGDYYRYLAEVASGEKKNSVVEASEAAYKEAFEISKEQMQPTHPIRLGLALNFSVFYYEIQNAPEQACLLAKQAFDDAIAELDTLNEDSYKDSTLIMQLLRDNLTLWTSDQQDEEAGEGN
Description: For the FP assay, the 14-3-3 proteins were diluted to a protein-specific start concentration in FP buffer (10 mM HEPES, pH 7.4, 150 mM NaCl, 2 mM DTT, 0.01% Tween 20). DMSO stocks of peptides were diluted in FP buffer to a concentration of 30 nM. For the assay, 10 μl of FP buffer were pipetted in 20 wells of a 384-well Corning black round bottom plate. A dilution series with 10 μl of protein solution was performed, and 5 μl of peptide solution was added to each well for a final volume of 15 μl. The plate was incubated for 60 min at room temperature. Measurement was performed at 25 °C in a Tecan Spark20M plate reader (λex = 470 nm, λem = 525 nm). Data analysis was performed with GraphPad Prism (version 5.03), and KD values were determined via a nonlinear regression fit of dose-response curves with variable slope (four parameters).
`CC(C)C[C@H](NC(=O)[C@@H](NC(=O)[C@@H](NC(=O)[C@H](C)NC(=O)[C@H](CO)NC(=O)[C@H](C)NC(=O)[C@@H]1CCCN1C(=O)[C@H](CC(N)=O)NC(=O)[C@@H](NC(=O)[C@@H](NC(=O)[C@H](C)NC(=O)[C@H](CO)NC(=O)[C@H](C)NC(=O)[C@H](CO)NC(=O)[C@@H]1CCCN1C(=O)[C@@H](NC(=O)[C@@H](NC(=O)[C@H](CO)NC(=O)[C@H](C)NC(=O)[C@@H](NC(=O)[C@@H]1CCCN1C(=O)[C@H](CO)NC(=O)[C@H](COP(=O)(O)O)NC(=O)[C@H](CC(N)=O)NC(=O)[C@H](C)NC(=O)[C@H](CC(N)=O)NC(=O)[C@H](CCCCN)NC(=O)[C@H](CC(N)=O)NC(=O)[C@H](CCCCN)NC(=O)[C@@H](N)CCC(=O)O)C(C)C)[C@@H](C)O)[C@@H](C)O)[C@@H](C)OP(=O)(O)O)[C@@H](C)O)[C@@H](C)O)[C@@H](C)O)C(=O)N[C@@H](CC(=O)O)C(=O)N[C@@H](CCC(N)=O)C(=O)N[C@@H](CO)C(=O)N[C@@H](CCCCN)C(=O)N[C@@H](C)C(=O)N[C@@H](Cc1c[nH]c2ccccc12)C(=O)N[C@@H](CC(N)=O)C(=O)N[C@@H](CCCNC(=N)N)C(=O)O` [compound 8] (H-EKNKNAN[pS]SPVASTTPSASA[pT]TNPASATTLDQSKAWNR-OH) showed a Kd of 18 ± 2.1 µM.
In the case of `CC(C)C[C@H](NC(=O)[C@@H](NC(=O)[C@@H](NC(=O)[C@H](C)NC(=O)[C@H](CO)NC(=O)[C@H](C)NC(=O)[C@@H]1CCCN1C(=O)[C@H](CC(N)=O)NC(=O)[C@@H](NC(=O)[C@@H](NC(=O)[C@H](C)NC(=O)[C@H](CO)NC(=O)[C@H](C)NC(=O)[C@H](CO)NC(=O)[C@@H]1CCCN1C(=O)[C@@H](NC(=O)[C@@H](NC(=O)[C@H](CO)NC(=O)[C@H](C)NC(=O)[C@@H](NC(=O)[C@@H]1CCCN1C(=O)[C@H](CO)NC(=O)[C@H](COP(=O)(O)O)NC(=O)[C@H](CC(N)=O)NC(=O)[C@H](C)NC(=O)[C@H](CC(N)=O)NC(=O)[C@H](CCCCN)NC(=O)[C@H](CC(N)=O)NC(=O)[C@H](CCCCN)NC(=O)[C@@H](N)CCC(=O)O)C(C)C)[C@@H](C)O)[C@@H](C)O)[C@@H](C)O)[C@@H](C)OP(=O)(O)O)[C@@H](C)O)[C@@H](C)O)C(=O)N[C@@H](CC(=O)O)C(=O)N[C@@H](CCC(N)=O)C(=O)N[C@@H](CO)C(=O)N[C@@H](CCCCN)C(=O)N[C@@H](C)C(=O)N[C@@H](Cc1c[nH]c2ccccc12)C(=O)N[C@@H](CC(N)=O)C(=O)N[C@@H](CCCNC(=N)N)C(=O)O` [compound 9] (H-EKNKNAN[pS]SPVASTTPSASAT[pT]NPASATTLDQSKAWNR-OH), the Kd is reported as 15 ± 1.5 µM.
`CC(C)C[C@H](NC(=O)[C@@H](NC(=O)[C@@H](NC(=O)[C@H](C)NC(=O)[C@H](COP(=O)(O)O)NC(=O)[C@H](C)NC(=O)[C@@H]1CCCN1C(=O)[C@H](CC(N)=O)NC(=O)[C@@H](NC(=O)[C@@H](NC(=O)[C@H](C)NC(=O)[C@H](CO)NC(=O)[C@H](C)NC(=O)[C@H](CO)NC(=O)[C@@H]1CCCN1C(=O)[C@@H](NC(=O)[C@@H](NC(=O)[C@H](CO)NC(=O)[C@H](C)NC(=O)[C@@H](NC(=O)[C@@H]1CCCN1C(=O)[C@H](CO)NC(=O)[C@H](COP(=O)(O)O)NC(=O)[C@H](CC(N)=O)NC(=O)[C@H](C)NC(=O)[C@H](CC(N)=O)NC(=O)[C@H](CCCCN)NC(=O)[C@H](CC(N)=O)NC(=O)[C@H](CCCCN)NC(=O)[C@@H](N)CCC(=O)O)C(C)C)[C@@H](C)O)[C@@H](C)O)[C@@H](C)O)[C@@H](C)O)[C@@H](C)O)[C@@H](C)O)C(=O)N[C@@H](CC(=O)O)C(=O)N[C@@H](CCC(N)=O)C(=O)N[C@@H](CO)C(=O)N[C@@H](CCCCN)C(=O)N[C@@H](C)C(=O)N[C@@H](Cc1c[nH]c2ccccc12)C(=O)N[C@@H](CC(N)=O)C(=O)N[C@@H](CCCNC(=N)N)C(=O)O` [compound 10] (H-EKNKNAN[pS]SPVASTTPSASATTNPA[pS]ATTLDQSKAWNR-OH) was tested, and the Kd was 0.42 ± 0.03 µM.
